Here are results for 2 compounds from paper PMC9283466, “In silico identification of two peptides with antibacterial activity against multidrug-resistant Staphylococcus aureus” (NPJ Biofilms and Microbiomes, 2022).

Values after ≈ are worked out from the molar mass of the structure shown. Bridge positions count the residues as written; N and C are the ends. Peptide text beside a SMILES is read from it. Some results are limits rather than exact numbers.

The subject of assay [1] is K. pneumoniae NCTC 13442. Kind of assay: microbe, parasite or virus in culture. The class given is cell-based, Klebsiella pneumoniae. As to conditions: NCTC 13442. How it is done:
(§1) To determine the antimicrobial activity of the new antimicrobial peptides, HG2 and HG4, their minimum inhibitory concentrations (MICs) were determined by broth microdilution method[51] in cation adjusted Mueller Hinton broth (MHB) following the International Organisation for Standardisation (ISO) 20776-1 standard for MIC testing using a final bacterial inoculum of 5 × 10^5 CFU/ml[52]. […] The peptides dissolved in sterile distilled water were added to bacteria culture and incubated overnight at appropriate conditions. The MICs of the peptides and comparator antibiotics were recorded after 18–24 h. The minimum bactericidal concentrations (MBCs) were also determined and were taken as the lowest concentration of the antimicrobial that prevented the growth of bacterial cells after the subculture of cells (from MIC treatment) onto antibiotic-free media.

Assay [2] concerns K. pneumoniae 518842. Kind of assay: microbe, parasite or virus in culture. As to conditions: 518842. The class given is cell-based, Klebsiella pneumoniae. How it is done: as §1
Assay [3] concerns K. pneumoniae ATCC 700603. Kind of assay: microbe, parasite or virus in culture. As to conditions: ATCC 700603. The class given is cell-based, Klebsiella pneumoniae. How it is done: as §1
Assay [4] deals with K. pneumoniae 526903. Kind of assay: microbe, parasite or virus in culture. The class given is cell-based, Klebsiella pneumoniae. The following applies: 526903. How it is done:
as §1

Assay [5] relates to MRSA USA300 biofilms. Kind of assay: Anti-biofilm activity, 96-well biofilm model (crystal violet). The class given is cell-based, Staphylococcus aureus. The following applies: established MRSA USA300 biofilms; for reduction in biofilm formation: sub-MIC (0.25x and 0.5 x MIC) and MIC concentrations; for biofilm reduction: supra-MIC concentrations (2x and 4x MIC). The method, then:
The ability of HG2 and HG4 to disrupt established S. aureus biofilms was measured using a 96-well format as described by ref. [14]. MRSA USA300 cultures grown overnight in Brain Heart Infusion (BHI) broth was resuspended to OD600nm = 0.02 and grown without aeration at 37 °C in 96-well tissue culture plates for an additional 24 h. The planktonic cells were removed by three PBS (phosphate-buffered saline) washes. Thereafter, fresh BHI broth containing peptides HG2 or HG4 at sub- and supra-MIC concentrations (0.5, 1, 2 and 4x MIC) was added to wells containing adherent cells and incubated without shaking for another 24 h. Planktonic cells were again removed by three PBS washes. Biofilms were fixed with methanol for 20 min, stained with 0.4% (w/v) crystal violet solution for 20 min and re-solubilised with 33% (v/v) acetic acid. The optical density of re-solubilised biofilms was measured at 570 nm in a microplate spectrophotometer. The percentage biofilm reduction was calculated using the equation below: Percentagebiofilmreduction(%)=PositiveControl−ODofSample/PositiveControl−NegativeControl The plot showing anti-biofilm activity (% biofilm reduction) was generated using the ‘ggplot2’ package[53] in R (v 4.1.1)[54] with log-linear regression performed using lm() function.

The nature of assay [6]: Peptide-lipid interaction and insertion, lipid monolayer. The following applies: for Speed of insertion: initial surface pressure 30+/-0.5 mN/m; for Critical pressure of insertion πc: peptide 1 µg/mL. The class given is binding. How it is done: Peptide–lipid interaction was measured using a lipid monolayer formed at the air:water interface with total lipid extracts and pure lipids. Total lipids were extracted from overnight cultures of MRSA or human erythrocytes using the Folch extraction procedure[14],[40]. Extracted total lipids were dried, re-solubilised in chloroform:methanol (2:1, v/v) and stored at −20 °C under nitrogen. Pure prokaryotic and eukaryotic lipids used were: cardiolipin, POPC (1-palmitoyl-2-oleoyl-glycero-3-phosphocholine), POPE (1-palmitoyl-2-oleoyl-sn-glycero-3-phosphoethanolamine) and POPG (1-palmitoyl-2-oleoyl-sn-glycero-3-phospho-(1’-rac-glycerol) (Avanti Polar Lipid). LTA (Lipoteichoic acid from S. aureus) and LPS (lipopolysaccharide from E. coli) (Invitrogen, UK) were also tested. Pure lipids were reconstituted in chloroform:methanol (2:1 v/v) at 1 mg/ml and stored at −20 °C under nitrogen. For peptide–lipid interaction assay, lipid monolayers at the air:water interface were formed by spreading total lipid extract or pure lipids at the surface of 800 µl of sterile PBS using a 50 µl Hamilton’s syringe. Lipids were added until the surface pressure reached the desired value. After 5–10 min of incubation allowing the evaporation of the solvent and stabilisation of the initial surface pressure, 8 µl of HG2 or HG4 diluted in sterile PBS at 100 µg/ml were injected into the 800 µl sub-phase of PBS under the lipid monolayer (pH 7.4, volume 800 µl) using a 10 µl Hamilton’s syringe giving a final concentration of peptide of 1 µg/ml, as preliminary experiments had shown that this concentration was optimal. The variation of the surface pressure caused by peptide insertion was then continuously monitored using a fully automated microtensiometer (µTROUGH SX, Kibron Inc, Finland) until it reached equilibrium (maximal surface pressure increase is usually obtained after 15–25 min). To reflect physiological situations, the initial surface pressure was fixed at 30 ± 0.5 mN/m in some experiments as this value corresponds to a lipid packing density theoretically equivalent to that of the outer leaflet of the eukaryotic and prokaryotic cell membrane. In other experiments, the critical pressure of insertion of HG2 or HG4 in the total lipid extracts and pure lipids was measured as follows[14],[56]. Briefly, in these experiments, the initial pressure of the lipid monolayer was set up at different values (between 10 and 30 mN/m) and the variation of pressure caused by the injection of the peptide was measured. […] All experiments were carried out in a controlled atmosphere at 20 ± 1 °C and data were analyzed using the Firmware 2.5 programme (Kibron Inc.). The accuracy of the system under our experimental conditions was determined to be ±0.25 mN/m for surface pressure measurements.

Experiment in assay [7]: as above
The class given is binding, human. As to conditions: Erythrocyte extract; initial surface pressure 30+/-0.5 mN/m. How it is done:
(§2) Peptide–lipid interaction was measured using a lipid monolayer formed at the air:water interface with total lipid extracts and pure lipids. Total lipids were extracted from overnight cultures of MRSA or human erythrocytes using the Folch extraction procedure[14],[40]. Extracted total lipids were dried, re-solubilised in chloroform:methanol (2:1, v/v) and stored at −20 °C under nitrogen. […] The variation of the surface pressure caused by peptide insertion was then continuously monitored using a fully automated microtensiometer (µTROUGH SX, Kibron Inc, Finland) until it reached equilibrium (maximal surface pressure increase is usually obtained after 15–25 min). […] In other experiments, the critical pressure of insertion of HG2 or HG4 in the total lipid extracts and pure lipids was measured as follows[14],[56]. Briefly, in these experiments, the initial pressure of the lipid monolayer was set up at different values (between 10 and 30 mN/m) and the variation of pressure caused by the injection of the peptide was measured. […] All experiments were carried out in a controlled atmosphere at 20 ± 1 °C and data were analyzed using the Firmware 2.5 programme (Kibron Inc.). The accuracy of the system under our experimental conditions was determined to be ±0.25 mN/m for surface pressure measurements.

Experiment in assay [8]: as above
The class given is binding, Staphylococcus aureus. The following applies: MRSA extract; initial surface pressure 30+/-0.5 mN/m. The method, then: as §2

In assay [9] the test system is P. aeruginosa (CF) LES400. Kind of assay: microbe, parasite or virus in culture. The class given is cell-based, Pseudomonas aeruginosa. The following applies: CF) LES400. The method in brief: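 MICs are determined by microdilution in cation-adjusted MHB under ISO 20776-1, using an inoculum of 5 × 10^5 CFU/ml and reading after 18–24 h. MBCs correspond to the lowest concentration where subcultured cells fail to grow without antibiotic.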

The subject of assay [10] is MRSA USA300 cells. Kind of assay: Transmission electron microscopy. The class given is cell-based, Staphylococcus aureus. As to conditions: 3x MICs for 60 min. The source says: Transmission electron microscopy[14] was used to investigate the effects of HG2 and HG4 on MRSA USA300 cell morphology. […] They were then stained with 2% (w/v) uranyl acetate and Reynold’s lead citrate after which they were observed using a JEM1010 transmission electron microscope (JEOL Ltd, Tokyo, Japan) at 80 kV.

Assay [11] relates to B. cereus. As to the kind of experiment: microbe, parasite or virus in culture. The class given is cell-based, Bacillus cereus. How it is done:
as §1

Turning to `CC[C@H](C)[C@H](NC(=O)[C@H](CC(C)C)NC(=O)[C@H](CC(C)C)NC(=O)[C@H](CC(C)C)NC(=O)[C@H](CCCCN)NC(=O)[C@H](CCCCN)NC(=O)[C@@H](N)CCSC)C(=O)N[C@@H](CC(C)C)C(=O)N[C@@H](Cc1ccccc1)C(=O)N[C@H]1CSSC[C@@H](C(=O)N[C@@H](CCCCN)C(=O)N[C@@H](CCCCN)C(=O)N[C@@H](C)C(=O)N2CCC[C@H]2C(N)=O)NC(=O)CNC(=O)[C@H](C)NC(=O)[C@H](CC(C)C)NC(=O)[C@H](C)NC(=O)[C@H](CC(C)C)NC(=O)[C@H](C)NC(=O)[C@H](CC(C)C)NC1=O` [HG2] (H-MKKLLLILFCLALALAGCKKAP-NH2; disulfide 10-18; N-terminus assumed), the MIC in assay [1] is 512 µg/mL (≈ 217 µM); in assay [2], 512 µg/mL (≈ 217 µM); in assay [3], above 512 µg/mL; in assay [4], above 512 µg/mL; in assay [9], 64 µg/mL (≈ 27.2 µM); in assay [11], 256 µg/mL (≈ 109 µM). For the same compound, the “reduction in biofilm formation” value in [5] is “less than 50%”. Besides, in [5], the biofilm reduction is reported as at least 50%. In addition, the Speed of insertion in assay [6] (Cardiolipin) is listed as 4.74 mN/m/10 sec; in [6] (PC), 8.58 mN/m/10 sec; in assay [6] (PE), 1.89 mN/m/10 sec; in [6] (PG), 3.70 mN/m/10 sec; in assay [7], 1.13 mN/m/10 sec; in assay [8], 3.36 mN/m/10 sec. Also, the “Critical pressure of insertion πc” value is reported as 41.30 mN/m in [6] (Cardiolipin), 62.79 mN/m in assay [6] (PC), 39.49 mN/m in assay [6] (PE) and 51.19 mN/m in assay [6] (PG). For the same compound, in assay [10], the “cell morphology by TEM” value is “changes in cell morphology and some cytoplasmic damage”.
For `CC[C@H](C)[C@H](NC(=O)[C@H](CC(C)C)NC(=O)[C@H](CC(C)C)NC(=O)[C@H](C)NC(=O)CNC(=O)CNC(=O)[C@@H](NC(=O)[C@@H](NC(=O)[C@H](CC(C)C)NC(=O)[C@H](C)NC(=O)[C@H](CC(C)C)NC(=O)CNC(=O)[C@H](CC(C)C)NC(=O)[C@@H](N)C(C)C)[C@@H](C)CC)C(C)C)C(=O)N[C@@H](CCCCN)C(=O)N[C@@H](CCCCN)C(=O)N[C@@H](CCCCN)C(=O)N[C@@H](CCC(N)=O)C(=O)N[C@@H](C)C(=O)N[C@@H](CCCCN)C(=O)N[C@@H](CO)C(N)=O` [HG4] (H-VLGLALIVGGALLIKKKQAKS-NH2; N-terminus and C-terminus assumed), the MIC in assay [1] was 512 µg/mL (≈ 242 µM); in assay [2], 512 µg/mL (≈ 242 µM); in assay [3], above 512 µg/mL; in assay [4], 512 µg/mL (≈ 242 µM); in [9], 128 µg/mL (≈ 60.4 µM); in assay [11], 512 µg/mL (≈ 242 µM). Further, the “reduction in biofilm formation” value in assay [5] is “less than 50%”. The same compound came in with a biofilm reduction in assay [5] of at least 50%. The Speed of insertion was found to be 2.44 mN/m/10 sec in [6] (Cardiolipin); 0.50 mN/m/10 sec in assay [6] (PC); 0.20 mN/m/10 sec in assay [6] (PE); 2.48 mN/m/10 sec in assay [6] (PG); 1.20 mN/m/10 sec in assay [7]; 1.69 mN/m/10 sec in assay [8]. The “Critical pressure of insertion πc” value in [6] (Cardiolipin) turned out to be 46.49 mN/m; in assay [6] (PC), 28.8 mN/m; in assay [6] (PE), 33.9 mN/m; in assay [6] (PG), 47.55 mN/m. Moreover, in assay [10], the “cell morphology by TEM” value was “changes in cell morphology and some cytoplasmic damage”.
